Results on one compound are retold here after patent publication US11324706B2, “Composition for inhibiting growth of breast cancer stem cells containing phenylacetaldehyde” (JEJU NATIONAL UNIVERSITY INDUSTRY-ACADEMIC COOPERATION …, priority 2016, dated 2022).

In one assay the test system is Cancer stem cells. Kind of assay: Formation of CSCs under PAA steam (scent). The assay is classed as cell-based. The following applies: PAA steam (1 mM), 7 days. Here is the method:
Cancer stem cells were cultured in the presence of PAA steam (1 mM) and vehicle (methanol) for 7 days.
Then, formation of CSCs was analyzed by emission of PAA scent (FIG. 4C). As a result, PAA inhibited formation of CSCs. Volatile materials, i.e., PAA and phenylethanol, which are the most important for roses and tomatoes were derived from phenylalanine, as shown in FIG. 5A (FIG. 5A). In order to investigate whether or not phenylalanine-derived volatile materials, i.e., PAA and phenylethanol, and structural analogs (2- and 3-phenylpropionaldehydes) can inhibit formation of tumorspheres, these volatile materials were exposed to MCF-7.

A further assay concerns secreted IL-6. Kind of assay: Western blot of secreted IL-6 in mammosphere culture solution. The assay is classed as cell-based, human. The following applies: culture solution of mammospheres. The text has this: PAA reduces extracellular IL-6 protein levels in mammosphere culture;
The secreted IL-6 is known to play a key role in the formation of mammospheres (Sansone P, Storci G, Tavolari S, Guarnieri T, Giovannini C, Taffurelli M, Ceccarelli C, Santini D, Paterini P, Marcu K B, Chieco P and Bonafe M. IL-6 triggers malignant features in mammospheres from human ductal breast carcinoma and normal mammary gland. J Clin Invest. 2007; 117(12):3988-4002). Accordingly, in order to investigate the amount of produced secreted IL-6, western blot analysis was conducted in a culture solution of mammospheres using IL-6 antibodies. […] The internal control group was used to count mammospheres before and after treatment with PAA.
For orientation: In western blotting, separated proteins are transferred to a membrane and probed.

Another assay relates to mammospheres. Kind of assay: Growth of mammospheres (cell counting). The assay is classed as cell-based. On the procedure: PAA inhibits growth of mammospheres. Mammospheres treated with PAA and DMSO for 2 days were separated into single cells and the equal number of cells were seeded on a 6 cm dish. 24 hours after seeding, the cells were counted. At 2- and 3-days, the cells were counted three times and plotted by the mean of the number. The data was represented by mean±standard deviation (SD). * means P<0.05, as compared to DMSO-treated control group;
Accordingly, for PAA, the levels of ROSs in breast cancer stem cells were investigated. As a result, PAA induced ROS activity in MDA-MB-231 cells (FIG. 7B). Next, in order to identify whether or not PAA inhibits proliferation of mammospheres, the mammospheres were treated with PAA and the cell number of mammospheres was counted.

For the next assay, the system named is MDA-MB-231 cells. As to the kind of experiment: Scratch migration assay. The assay is classed as cell-based, human. Here is the method:
Scratch curing of MDA-MB-231 cells was imaged at […] with or without PAA treatment;
MDA-MB-231 cells were seeded on a 6-well plate to grow cells until confluence reached 90%. Scratch was created on the cell layer using a sterilized white micro-pipette tip. After washing with DMEM medium, breast cancer cells were treated with PAA or DMSO. 16 hours later, the scratch region was imaged with a 10× optical microscope.

The test system of assay [1] is Nanog, Sox2, Oct4 and CD44 genes. As to the kind of experiment: Real-time PCR of CSC markers in mammospheres. The assay is classed as cell-based, human. As to conditions: β-actin internal control. On the procedure: In accordance with the manufacturer's instructions, the level of transcriptome was measured with one step SYBR PrimeScript RT-PCR kit (Takara, Tokyo, Japan) using SYBR green as a double-stranded DNA-specific dye. One-step RT-PCR reaction was conducted in the final volume of 20 μl per reaction containing 1 μg of total RNA, 10 μl of 2× one step SYBR RT-PCR buffer IV, 1 μl of PrimeScript 1 step enzyme mix II, and 10 μM of PCR forward primers and PCR reverse primers for CD44, NANOG, OCT4, SOX2, and β-actin. The forward and reverse primers are as follow: […]
Relative expression amounts of mRNAs of target genes were calculated using a comparative CT method. At least three independent PCR procedures were conducted in accordance with statistical analysis. PCR products were normalized with β-actin genes, as an internal control.
For orientation: Quantitative PCR measures a nucleic acid by following its amplification.

Another assay concerns nuclear p65. Kind of assay: Western blotting of mammosphere nuclear proteins, p65. The assay is classed as cell-based, human. As to conditions: MCF-7-derived mammospheres. On the procedure: The proteins isolated from mammospheres of PAA-treated MCF-7 were separated on 10% SDS-PAGE and transferred to a polyvinylidene difluoride membrane (Millipore, Bedford, Mass., USA). The membrane was blocked in 5% skim milk-containing PBS-Tween 20 (0.1%, v/v) for 30 minutes at room temperature. The blot was cultured at 4° C. in a blocking solution containing primary antibodies overnight. The used primary antibodies were as follows: Stat3, p65, Lamin B, and phospho-Stat3 (Cell Signaling, Beverly, Mass., USA). β-actin antibodies (Santa Cruz Biotechnology) were used as a loading control group. After washing with PBS-Tween 20 (0.1%, v/v), the blot was cultured in a horseradish peroxidase-conjugated secondary antibody and subjected to photosensitive treatment with a chemiluminescent detection kit (Santa Cruz Biotechnology).
In order to investigate cellular functions of PAA, STAT3 and NF-κB pathways were investigated in MCF-7-derived mammospheres subjected to treatment with PAA. As compared to the control group, PAA reduced phosphorylation of nuclear STAT3 proteins.

Each structure is given as a SMILES string.

Turning to `O=CCc1ccccc1` [PAA, phenylacetaldehyde], the “formation of CSCs by emission of PAA scent” value with Cancer stem cells is recorded as “inhibited”. For the same compound, the “production level of secreted IL-6” value in the assay on secreted IL-6 is recorded as “reduced”. The apoptosis of mammospheres result in the assay on mammospheres is listed as “induced apoptosis”. Moreover, in the assay on mammospheres (cell number counted after PAA treatment), the proliferation of mammospheres result is listed as “greatly reduces”. The “migration of MDA-MB-231 cells” value in the assay on MDA-MB-231 cells was “concentration-dependently inhibited”. Further, the “expression of self-renewal genes such as Nanog, Sox2, Oct4, and CD44” value in assay [1] was “reduced”. Further, the “protein levels of nuclear p65” value in the assay on nuclear p65 is “did not reduce”.
